# Measured values from US12410160B2 (Gilead Sciences, Inc., priority 2021, dated 2025).
# Legend:
# human KHK-C = human KHK-C (Homo sapiens (Human), UniProt P50053); assay: KHK Biochemical Assay (IC50), ADP-Glo, KHK-C; conditions: average of at least two separate assays
# Summary of the method: (§1)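 Luminescent ADP-Glo read-out of ADP made by His-tagged KHK (BL21 (DE3) expression, Ni-NTA). Enzyme and compound sat together 30 min before ATP/fructose addition, then reacted 4 h at RT in Hepes pH 7.4 buffer with KCl, MgCl2, Triton-X. Quench 1 h, detection 1 h.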
# human KHK-A = human KHK-A (Homo sapiens (Human), UniProt P50053); assay: KHK Biochemical Assay (IC50), ADP-Glo, KHK-A; conditions: average of at least two separate assays
# Summary of the method: as §1
# human KHK-A, sequence (P50053 other isoform, or with tags, fused parts or gaps): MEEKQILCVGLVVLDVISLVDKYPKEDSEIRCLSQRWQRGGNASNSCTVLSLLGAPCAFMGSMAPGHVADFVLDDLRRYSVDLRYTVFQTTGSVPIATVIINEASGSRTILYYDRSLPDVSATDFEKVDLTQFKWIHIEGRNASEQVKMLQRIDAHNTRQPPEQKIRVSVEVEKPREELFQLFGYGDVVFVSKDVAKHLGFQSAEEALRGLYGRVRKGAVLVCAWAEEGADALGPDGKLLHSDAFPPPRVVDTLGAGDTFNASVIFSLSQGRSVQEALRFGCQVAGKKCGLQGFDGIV
# human KHK-C, sequence (P50053 whole entry): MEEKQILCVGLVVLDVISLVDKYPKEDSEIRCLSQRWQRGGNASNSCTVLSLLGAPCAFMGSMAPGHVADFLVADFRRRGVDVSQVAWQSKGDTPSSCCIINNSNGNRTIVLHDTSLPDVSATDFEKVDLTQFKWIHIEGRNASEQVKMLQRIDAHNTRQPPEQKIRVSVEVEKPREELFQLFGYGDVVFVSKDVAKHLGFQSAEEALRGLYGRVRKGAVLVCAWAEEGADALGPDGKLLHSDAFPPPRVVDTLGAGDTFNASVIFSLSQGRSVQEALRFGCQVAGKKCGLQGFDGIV
SMILES,IC50 (human KHK-C; ADP-Glo),IC50 (human KHK-A; ADP-Glo),IC50 (human KHK-C),IC50 (human KHK-A)
"C[C@H]1CCN1c1nc2c(c(-c3ccc(C(=O)N(C)C)cc3)n1)CCC2 [Example 293, (S)—N,N-dimethyl-4-(2-(2-methylazetidin-1-yl)-6,7-dihydro-5H-cyclopenta[d]pyrimidin-4-yl)benzamide]",200 nM,153 nM,–,–
"C[C@H]1CCN1c1nc2c(c(-c3ccc(C4(NC(=O)OC(C)(C)C)CC4)cc3)n1)CCC2 [Example 294, (S)-tert-butyl (1-(4-(2-(2-methylazetidin-1-yl)-6,7-dihydro-5H-cyclopenta[d]pyrimidin-4-yl)phenyl)cyclopropyl)carbamate]",3400 nM,3890 nM,–,–
"C[C@H]1CCN1c1nc2c(c(-c3ccc(C(=O)Nc4ccccc4)cc3)n1)CCC2 [Example 296, (S)-4-(2-(2-methylazetidin-1-yl)-6,7-dihydro-5H-cyclopenta[d]pyrimidin-4-yl)-N-phenylbenzamide]",3000 nM,2090 nM,–,–
"C[C@H]1CCN1c1nc2c(c(-c3cccc(C(=O)Nc4ccccc4)c3)n1)CCC2 [Example 297, (S)-3-(2-(2-methylazetidin-1-yl)-6,7-dihydro-5H-cyclopenta[d]pyrimidin-4-yl)-N-phenylbenzamide]",2840 nM,847 nM,–,–
"C[C@H]1CCN1c1nc2c(c(-c3cc(C(N)=O)cc([N+](=O)[O-])c3)n1)CCC2 [Example 298, (S)-3-(2-(2-methylazetidin-1-yl)-6,7-dihydro-5H-cyclopenta[d]pyrimidin-4-yl)-5-nitrobenzamide]",247 nM,374 nM,–,–
"C[C@H]1CCN1c1nc2c(c(-c3cc(N)cc(C(N)=O)c3)n1)CCC2 [Example 299, (S)-3-amino-5-(2-(2-methylazetidin-1-yl)-6,7-dihydro-5H-cyclopenta[d]pyrimidin-4-yl)benzamide]",45.6 nM,47.3 nM,–,–
"C[C@H]1CCN1c1nc2c(c(-c3cc(NS(C)(=O)=O)cc(C(N)=O)c3)n1)CCC2 [Example 300, (S)-3-(2-(2-methylazetidin-1-yl)-6,7-dihydro-5H-cyclopenta[d]pyrimidin-4-yl)-5-(methylsulfonamido)benzamide]",33.6 nM,42.8 nM,–,–
"C[C@H]1[C@H](O)CN1c1nc2c(c(-c3ccc(C4(N)CC4)cc3)n1)CCC2 [Example 301, (2S,3R)-1-(4-(4-(1-aminocyclopropyl)phenyl)-6,7-dihydro-5H-cyclopenta[d]pyrimidin-2-yl)-2-methylazetidin-3-ol]",3.7 nM,9.9 nM,–,–
"C[C@H]1CCN1c1nc2c(c(-c3ccc(C4(N5CCN(C)CC5)CC4)cc3)n1)CCC2 [Example 302, (S)-2-(2-methylazetidin-1-yl)-4-(4-(1-(4-methylpiperazin-1-yl)cyclopropyl)phenyl)-6,7-dihydro-5H-cyclopenta[d]pyrimidine]",849 nM,636 nM,–,–
"C[C@H]1CCN1c1nc2c(c(-c3ccc(C4(N5CCOCC5)CC4)cc3)n1)CCC2 [Example 304, (S)-4-(1-(4-(2-(2-methylazetidin-1-yl)-6,7-dihydro-5H-cyclopenta[d]pyrimidin-4-yl)phenyl)cyclopropyl)morpholine]",786 nM,983 nM,–,–
"Cc1ncc(-c2nc(N3CC[C@@H]3C)nc3c2CCC3)o1 [Example 325, 2-methyl-5-[2-[(2S)-2-methylazetidin-1-yl]-6,7-dihydro-5H-cyclopenta[d]pyrimidin-4-yl]oxazole]",452 nM,440 nM,–,–
"Cc1cc(-c2nc(N3CC[C@@H]3C)nc3c2CCC3)on1 [Example 326, 3-methyl-5-[2-[(2S)-2-methylazetidin-1-yl]-6,7-dihydro-5H-cyclopenta[d]pyrimidin-4-yl]isoxazole]",228 nM,231 nM,–,–
"Cc1cc(-c2nc(N3CC[C@@H]3C)nc3c2CCC3)sn1 [Example 327, 3-methyl-5-[2-[(2S)-2-methylazetidin-1-yl]-6,7-dihydro-5H-cyclopenta[d]pyrimidin-4-yl]isothiazole]",38.2 nM,96.8 nM,–,–
"C[C@H]1CCN1c1nc2c(c(-c3cccc(CNC(=O)OC(C)(C)C)c3)n1)CCC2 [Example 328, tert-butyl N-[[3-[2-[(2S)-2-methylazetidin-1-yl]-6,7-dihydro-5H-cyclopenta[d]pyrimidin-4-yl]phenyl]methyl]carbamate]",502 nM,609 nM,–,–
"C[C@H]1CCN1c1nc2c(c(-c3ccccc3)n1)CC1(CC1)C2 [Example 335, 2-[(2S)-2-methylazetidin-1-yl]-4-phenyl-spiro[5,7-dihydrocyclopenta[d]pyrimidine-6,1′-cyclopropane]]",> 50000 nM,> 50000 nM,–,–
"CC1CCc2c(-c3ccccc3)nc(N3CC[C@@H]3C)nc21 (stereo partly drawn) [Example 336, 7-methyl-2-[(2S)-2-methylazetidin-1-yl]-4-phenyl-6,7-dihydro-5H-cyclopenta[d]pyrimidine]",20100 nM,13200 nM,–,–
"CC1Cc2nc(N3CC[C@@H]3C)nc(-c3ccccc3)c2C1 (stereo partly drawn) [Example 337, 6-methyl-2-[(2S)-2-methylazetidin-1-yl]-4-phenyl-6,7-dihydro-5H-cyclopenta[d]pyrimidine]",5100 nM,2950 nM,–,–

SMILES,IC50 (human KHK-C; ADP-Glo),IC50 (human KHK-A; ADP-Glo),IC50 (human KHK-C),IC50 (human KHK-A)
"C[C@H]1CCN1c1nc(-c2ccccc2)c2c(n1)C1(CC2)CC1 [Example 338, 2-[(2S)-2-methylazetidin-1-yl]-4-phenyl-spiro[5,6-dihydrocyclopenta[d]pyrimidine-7,1′-cyclopropane]]",> 50000 nM,> 50000 nM,–,–
"CC1CCc2nc(N3CC[C@@H]3C)nc(-c3ccccc3)c21 (stereo partly drawn) [Example 339, 5-methyl-2-[(2S)-2-methylazetidin-1-yl]-4-phenyl-6,7-dihydro-5H-cyclopenta[d]pyrimidine]",2220 nM,1900 nM,–,–
"Cc1cnc(-c2nc(N3CC[C@@H]3C)nc3c2CCC3)s1 [Example 342, 5-methyl-2-[2-[(2S)-2-methylazetidin-1-yl]-6,7-dihydro-5H-cyclopenta[d]pyrimidin-4-yl]thiazole]",107 nM,107 nM,–,–
"C[C@H]1CCN1c1nc2c(c(-c3ccnnc3)n1)CCC2 [Example 343, 2-[(2S)-2-methylazetidin-1-yl]-4-pyridazin-4-yl-6,7-dihydro-5H-cyclopenta[d]pyrimidine]",408 nM,357 nM,–,–
"C[C@H]1CCN1c1nc2c(c(-c3cnccn3)n1)CCC2 [Example 344, 2-[(2S)-2-methylazetidin-1-yl]-4-pyrazin-2-yl-6,7-dihydro-5H-cyclopenta[d]pyrimidine]",224 nM,175 nM,–,–
"C[C@H]1CCN1c1nc2c(c(-c3ccc(S(C)(=O)=O)cc3)n1)CCC2 [Example 354, 2-[(2S)-2-methylazetidin-1-yl]-4-(4-methylsulfonylphenyl)-6,7-dihydro-5H-cyclopenta[d]pyrimidine]",138 nM,177 nM,–,–
"Cc1cc(-c2nc(N3CC[C@@H]3C)nc3c2CCC3)ccc1C(=O)NCCO [Example 356, N-(2-hydroxyethyl)-2-methyl-4-[2-[(2S)-2-methylazetidin-1-yl]-6,7-dihydro-5H-cyclopenta[d]pyrimidin-4-yl]benzamide]",79.9 nM,70.6 nM,–,–
"Cc1cc(-c2nc(N3CC[C@@H]3C)nc3c2CCC3)ccc1C(=O)N(C)C [Example 357, N,N,2-trimethyl-4-[2-[(2S)-2-methylazetidin-1-yl]-6,7-dihydro-5H-cyclopenta[d]pyrimidin-4-yl]benzamide]",162 nM,122 nM,–,–
"C[C@H]1CCN1c1nc2c(c(-c3ccc(CNC(=O)c4ccccc4)cc3)n1)CCC2 [Example 360, N-[[4-[2-[(2S)-2-methylazetidin-1-yl]-6,7-dihydro-5H-cyclopenta[d]pyrimidin-4-yl]phenyl]methyl]benzamide]",253 nM,169 nM,–,–
"C[C@H]1[C@H](O)CN1c1nc2c(c(-c3ccc(CN)s3)n1)CCC2 [Example 363, (2S,3R)-1-[4-[5-(aminomethyl)-2-thienyl]-6,7-dihydro-5H-cyclopenta[d]pyrimidin-2-yl]-2-methyl-azetidin-3-ol]",29.1 nM,25.8 nM,–,–
"C[C@H]1CCN1c1nc2c(c(-c3ccc(CN4CCOCC4)cc3)n1)CCC2 [Example 367, 4-[[4-[2-[(2S)-2-methylazetidin-1-yl]-6,7-dihydro-5H-cyclopenta[d]pyrimidin-4-yl]phenyl]methyl]morpholine]",176 nM,224 nM,–,–
"C[C@H]1CCN1c1nc2c(c(-c3ccc(CN(C)C)cc3)n1)CCC2 [Example 368, N,N-dimethyl-1-[4-[2-[(2S)-2-methylazetidin-1-yl]-6,7-dihydro-5H-cyclopenta[d]pyrimidin-4-yl]phenyl]methanamine]",20 nM,38.3 nM,–,–
"C[C@H]1CCN1c1nc2c(c(-c3ccc(C(C)(C)O)cc3)n1)CCC2 [Example 369, 2-[4-[2-[(2S)-2-methylazetidin-1-yl]-6,7-dihydro-5H-cyclopenta[d]pyrimidin-4-yl]phenyl]propan-2-ol]",87.1 nM,186 nM,–,–
"C[C@H]1CCN1c1nc2c(c(-c3cccc(C(N)=O)c3)n1)C1CC1C2 (stereo partly drawn) [Example 445, 3-(2-((S)-2-methylazetidin-1-yl)-4b,5,5a,6-tetrahydrocyclopropa[3,4]cyclopenta[1,2-d]pyrimidin-4-yl)benzamide]",–,–,306 nM,130 nM
"C[C@H]1CCN1c1nc2c(c(-c3ccc4c(c3)[nH]c(=O)n4C)n1)CCC2 [Example 452, 3-methyl-6-[2-[(2S)-2-methylazetidin-1-yl]-6,7-dihydro-5H-cyclopenta[d]pyrimidin-4-yl]-1H-benzimidazol-2-one]",–,–,68.3 nM,103 nM
"C[C@H]1[C@H](O)CN1c1nc(-c2ccc3c(c2)OCC32COCC(=O)N2)c2c(n1)C(F)(F)CC2 (stereo partly drawn) [Example 497, 6-(7,7-difluoro-2-((2S,3R)-3-hydroxy-2-methylazetidin-1-yl)-6,7-dihydro-5H-cyclopenta[d]pyrimidin-4-yl)-2H-spiro[benzofuran-3,3′-morpholin]-5′-one]",–,–,0.1 nM,2.2 nM
